Assay results as given in PubChem BioAssay (NCI).
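Five compound concentrations were applied to cells in 96-well plates for 48 hours; endpoints were derived by simple linear interpolation of the resulting dose-response curve. The concentration for 50% growth inhibition is given as GI50. Definition used: TGI = concentration required for complete inhibition of growth.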

Legend:
Experiment in all cases: NCI tumour cell line growth inhibition, 48 h
[1] = test system: SF-539 CNS
[2] = test system: OVCAR-5 ovarian
[3] = test system: TK-10 renal
[4] = test system: UO-31 renal
[5] = test system: MDA-MB-231 breast
[6] = test system: SK-MEL-2 melanoma
[7] = test system: HCT-116 colon
[8] = test system: HOP-62 NSCLC
[9] = test system: DU-145 prostate
[10] = test system: SR leukemia
[11] = test system: T-47D breast
[12] = test system: NCI-H460 lung
[13] = test system: CAKI-1 renal
[14] = test system: MOLT-4 leukemia
[15] = test system: SK-MEL-5 melanoma
[16] = test system: NCI-H522 lung
[17] = test system: LOX IMVI melanoma
[18] = test system: HOP-92 NSCLC
[19] = test system: HT29 colon
[20] = test system: IGROV1 ovarian
[21] = test system: SNB-19 CNS
[22] = test system: OVCAR-4 ovarian
[23] = test system: UACC-62 melanoma
[24] = test system: U251 CNS
[25] = test system: K-562 leukemia
[26] = test system: RPMI-8226 leukemia
[27] = test system: SN12C renal
[28] = test system: NCI-H23 lung
[29] = test system: PC-3 prostate
[30] = test system: COLO 205 colon
[31] = test system: CCRF-CEM leukemia
[32] = test system: MALME-3M melanoma
[33] = test system: NCI/ADR-RES ovarian
[34] = test system: A549 NSCLC
[35] = test system: HS 578T breast
[36] = test system: SK-MEL-28 melanoma
[37] = test system: BT-549 breast
[38] = test system: MDA-MB-435
[39] = test system: MCF7 breast
[40] = test system: OVCAR-8 ovarian
[41] = test system: OVCAR-3 ovarian
[42] = test system: UACC-257 melanoma
[43] = test system: 786-0 renal
[44] = test system: SK-OV-3 ovarian
[45] = test system: RXF 393 renal
[46] = test system: HL-60(TB) leukemia
[47] = test system: SNB-75 CNS
[48] = test system: NCI-H226 lung
[49] = test system: SW-620 colon
[50] = test system: ACHN renal
[51] = test system: EKVX NSCLC
[52] = test system: HCT-15 colon
[53] = test system: M14 melanoma
[54] = test system: KM12 colon
[55] = test system: SF-268 CNS
[56] = test system: SF-295 CNS

## Cc1ccc(NC2=N[C@]34CC(=O)CC[C@]3(C)[C@H]3CC[C@]5(C)C(=O)CC[C@H]5[C@@H]3C[C@@H]4S2)c(C)c1
[1]
  GI50: 1.62 µM
  TGI: 3.08 µM
[2]
  GI50: 2.9 µM
  TGI: > 100 µM
[3]
  GI50: 2.46 µM
  TGI: 6.7 µM
[4]
  GI50: 1.34 µM
  TGI: 2.86 µM
[5]
  GI50: 2.33 µM
  TGI: 7.92 µM
[6]
  GI50: 2.19 µM
  TGI: 4.74 µM
[7]
  GI50: 1.49 µM
  TGI: 2.85 µM
[8]
  GI50: 2.43 µM
  TGI: 6.92 µM
[9]
  GI50: 2.04 µM
  TGI: 5.18 µM
[10]
  GI50: 2.32 µM
  TGI: > 100 µM
[11]
  GI50: 2.89 µM
  TGI: > 100 µM
[12]
  GI50: 2.7 µM
  TGI: 8.39 µM
[13]
  GI50: 2.83 µM
  TGI: > 100 µM
[14]
  GI50: 2.49 µM
  TGI: > 100 µM
[15]
  GI50: 1.86 µM
  TGI: 3.73 µM
[16]
  GI50: 1.68 µM
  TGI: 3.28 µM
[17]
  GI50: 1.64 µM
  TGI: 3.13 µM
[18]
  GI50: 1.72 µM
  TGI: 3.86 µM
[19]
  GI50: 2.55 µM
  TGI: 7.04 µM
[20]
  GI50: 2.11 µM
  TGI: 5.14 µM
[21]
  GI50: 2.12 µM
  TGI: 5.09 µM
[22]
  GI50: 3.83 µM
  TGI: > 100 µM
[23]
  GI50: 1.72 µM
  TGI: 3.94 µM
[24]
  GI50: 1.69 µM
  TGI: 3.21 µM
[25]
  GI50: 2.86 µM
  TGI: > 100 µM
[26]
  GI50: 2.43 µM
  TGI: 6.25 µM
[27]
  GI50: 2.17 µM
  TGI: 5.07 µM
[28]
  GI50: 2.01 µM
  TGI: 4.85 µM
[29]
  GI50: 1.86 µM
  TGI: 4.53 µM
[30]
  GI50: 2.5 µM
  TGI: 6.54 µM
[31]
  GI50: 2.45 µM
  TGI: > 100 µM
[32]
  GI50: 1.99 µM
  TGI: 5.55 µM
[33]
  GI50: 2.91 µM
  TGI: > 100 µM
[34]
  GI50: 3.5 µM
  TGI: > 100 µM
[35]
  GI50: 3.75 µM
  TGI: > 100 µM
[36]
  GI50: 2.31 µM
  TGI: 6.08 µM
[37]
  GI50: 1.49 µM
  TGI: 2.94 µM
[38]
  GI50: 3.02 µM
  TGI: > 100 µM
[39]
  GI50: 2.31 µM
  TGI: > 100 µM
[40]
  GI50: 2.63 µM
  TGI: 7.26 µM
[41]
  GI50: 2.18 µM
  TGI: 5.03 µM
[42]
  GI50: 3.7 µM
  TGI: > 100 µM
[43]
  GI50: 1.62 µM
  TGI: 3.07 µM
[44]
  GI50: 9.85 µM
  TGI: > 100 µM
[45]
  GI50: 1.74 µM
  TGI: 3.23 µM
[46]
  GI50: 2.47 µM
  TGI: 6.03 µM
[47]
  GI50: 2.19 µM
  TGI: 97.5 µM

## CC1=NN(C(=O)c2ccc(Cl)cc2)C(=O)C1N=Nc1ccc(S(=O)(=O)Nc2ncccn2)cc1 (stereo not drawn)
[1]
  TGI: > 100 µM
[2]
  TGI: > 100 µM
[3]
  TGI: > 100 µM
[4]
  TGI: > 100 µM
[5]
  TGI: > 100 µM
[6]
  TGI: > 100 µM
[7]
  TGI: > 100 µM
[8]
  TGI: > 100 µM
[9]
  TGI: > 100 µM
[10]
  TGI: > 100 µM
[11]
  TGI: > 100 µM
[12]
  TGI: > 100 µM
[13]
  TGI: > 100 µM
[14]
  TGI: > 100 µM
[48]
  TGI: > 100 µM
[15]
  TGI: > 100 µM
[49]
  TGI: > 100 µM
[16]
  TGI: > 100 µM
[17]
  TGI: > 100 µM
[50]
  TGI: > 100 µM
[18]
  TGI: 2.07 µM
[19]
  TGI: > 100 µM
[51]
  TGI: > 100 µM
[52]
  TGI: > 100 µM
[20]
  TGI: > 100 µM
[21]
  TGI: > 100 µM
[22]
  TGI: > 100 µM
[23]
  TGI: > 100 µM
[24]
  TGI: > 100 µM
[25]
  TGI: > 100 µM
[27]
  TGI: > 100 µM
[53]
  TGI: > 100 µM
[54]
  TGI: > 100 µM
[28]
  TGI: > 100 µM
[29]
  TGI: 5.11 µM
[30]
  TGI: > 100 µM
[32]
  TGI: > 100 µM
[33]
  TGI: > 100 µM
[34]
  TGI: > 100 µM
[35]
  TGI: > 100 µM
[36]
  TGI: > 100 µM
[37]
  TGI: > 100 µM
[38]
  TGI: > 100 µM
[39]
  TGI: > 100 µM
[40]
  TGI: > 100 µM
[55]
  TGI: > 100 µM
[41]
  TGI: > 100 µM
[42]
  TGI: > 100 µM
[43]
  TGI: > 100 µM
[44]
  TGI: > 100 µM
[45]
  TGI: > 100 µM
[46]
  TGI: > 100 µM
[56]
  TGI: > 100 µM
[47]
  TGI: > 100 µM
